In patent US20240254087A1, “SELECTIVE, PARTIAL, AND ARRESTIN-BIASED 5-HT2A AGONISTS WITH UTILITY IN VARIOUS DISORDERS” (Saint Joseph's University, priority 2021, published 2024):
Where two headings read alike, the source gives them in different places.

Legend:
[1] = biological target: T1, 5-HT2A (Homo sapiens, UniProt P28223); assay: cell-based; parameters: expressed in transfected cells; host or cells: HEK293T, transient; settings: for Emax: read-out: 5-HT2A β-arrestin Emax (% 5-HT), BRET, mean ± SEM
[2] = biological target: T1, 5-HT2A; assay: [3H]-ketanserin displacement, 5-HT2A membranes; format: binding; parameters: ES-313-M400UA (membranes); host or cells: CHO-K1; settings: [3H]-ketanserin displacement (n = 2); read-out: 5-HT2A pKi Mean ± SEM (converted)
[3] = biological target: T1, 5-HT2A; assay: cell-based; parameters: expressed in transfected cells; host or cells: HEK293T, transient; settings: for Emax: read-out: 5-HT2A Gq Emax (% 5-HT), BRET, mean ± SEM
[4] = BRET, mean ± SEM, read-out: 5-HT2A β-arrestin recruitment pEC50 (converted)
[5] = BRET, mean ± SEM, read-out: 5-HT2A Gq dissociation pEC50 (converted)

T1 sequence (P28223 whole entry): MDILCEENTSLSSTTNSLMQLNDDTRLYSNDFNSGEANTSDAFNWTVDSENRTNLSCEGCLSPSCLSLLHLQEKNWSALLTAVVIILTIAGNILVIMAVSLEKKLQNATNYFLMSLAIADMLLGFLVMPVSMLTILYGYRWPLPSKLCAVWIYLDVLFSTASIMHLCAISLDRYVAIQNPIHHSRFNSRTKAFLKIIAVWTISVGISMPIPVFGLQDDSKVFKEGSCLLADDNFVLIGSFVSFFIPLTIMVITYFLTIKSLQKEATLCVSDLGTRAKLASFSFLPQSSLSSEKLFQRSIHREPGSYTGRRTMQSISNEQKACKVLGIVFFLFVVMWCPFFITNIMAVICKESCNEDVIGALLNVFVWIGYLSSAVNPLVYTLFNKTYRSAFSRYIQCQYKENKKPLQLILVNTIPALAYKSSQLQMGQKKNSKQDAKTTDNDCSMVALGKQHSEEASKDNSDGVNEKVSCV

Structure (SMILES) | EC50 [1, 4] [nM] | Emax [1] [%] | Ki [2] [nM] | EC50 [3, 5] [nM] | Emax [3] [%] | EC50 [1] [nM] | 5-HT2A Gq dissociation pEC50 ([3]; BRET, mean ± SEM) | EC50 [3] [nM]
COc1cc(OC)c(OC)cc1CCNCc1cccc2c1oc1ccccc12 [(74), N-(dibenzo-[b, d]-furan-4-ylmethyl)-2-(2,4,5-trimethoxyphenyl)-ethan-1-amine] | 16.2 | 68.3 ± 3.4 | 67.6 | 81.3 | 40.2 ± 1.9 | – | – | –
COc1cc(OC)c(OC)cc1CCNCc1cccc(OCc2ccccc2)c1 [(78)] | – | 50.3 ± 4.1 | 251 | – | 32.8 ± 4.5 | – | – | –
COc1cc(OC)c(OC)cc1CCNCc1ccc(-c2cccs2)s1 [(77)] | – | 82.5 ± 4.2 | 324 | – | 49 ± 5.1 | – | – | –
COc1cc(OC)c(OC)cc1CCNCc1cccc(C)c1O [(68)] | 1.41 | 89.1 ± 2.3 | 30.9 | 3.24 | 63.4 ± 0.8 | – | – | –
COc1cc(OC)c(OC)cc1CCNCc1ccccc1C1CC1 [(70)] | 6.92 | 116 ± 4.4 | 70.8 | 3.63 | 97.5 ± 1.5 | – | – | –
COc1cccc(COc2ccccc2CNCCc2cc(OC)c(OC)cc2OC)c1 [(79)] | – | 33 ± 4.8 | 158 | – | < 10 | 1120 | No activity | –
COc1cc(OC)c(OC)cc1CCNCc1ccc(F)c2ccccc12 [(67)] | 10.2 | 73.6 ± 3.2 | 50.1 | 22.9 | 41 ± 1.3 | – | – | –
COc1cc(OC)c(OC)cc1CCNCc1c[nH]nc1-c1ccccc1 [(80)] | 79.4 | 102 ± 3.7 | 302 | – | 31.8 ± 2.3 | – | – | 537
COc1cc(OC)c(OC)cc1CCNCc1cccc(I)c1F [(72)] | 7.08 | 63.5 ± 3.2 | 49 | 33.9 | 60.7 ± 1.7 | – | – | –
COc1cc(OC)c(OC)cc1CCNCc1ccc(-c2ccccc2)s1 [(76), N-((5-phenylthiophen-2-yl)methyl)-2-(2,4,5-trimethoxyphenyl)-ethan-1-amine] | 91.2 | 78 ± 4 | 447 | – | 57.4 ± 4.6 | – | – | 1070
COc1cc(OC)c(OC)cc1CCNCc1cccc(C(C)(C)C)c1 [(71)] | 1620 | 60.4 ± 5.2 | 380 | 1620 | 38.6 ± 5 | – | – | –
COc1cc(OC)c(OC)cc1CCNCc1ccc(-c2ccccc2)o1 [(75)] | – | 50.3 ± 4.7 | 309 | – | < 10 | 891 | No activity | –
